Source: patent US7550469B2, “Heterocyclic amide derivatives and their use as dopamine D3 receptor ligands” (Aventis Pharmaceuticals Inc., priority 2001, dated 2009)

Biological target: T1, cloned human dopamine D3 receptors (Homo sapiens, UniProt P35462)
T1 construct: expressed in transfected cells; membrane homogenate
Assay: [N-Methyl-3H]Spiroperidol binding to cloned human dopamine D3 receptors (Protocol 1)
Settings: the 13th table, unit inferred; read-out: D3Ki
Description: [N-Methyl-^3H]Spiroperidol Binding to Cloned Human Dopamine D3 Receptors
This assay measures the in vitro activity of compounds on cloned human dopamine (D3) receptors and predicts the direct dopamine-blocking properties of putative neuropsychiatric agents at human dopamine D3 receptors.
The D3 gene was isolated from a human striatal cDNA library (Stratagene). The gene was sequenced and sub-cloned into the expression vector RC/RSV (Invitrogen). CHO (Chinese Hamster Ovary) cells were stably transfected with 10 μg of the D3/RSV plasmid using the DOTAP method from Boehringer Mannheim and 72 clones that were G418 resistant were isolated. Using mRNA and binding displacement data a single high expressing clone was identified. This clone was then grown in large batches for the purpose of developing a 96 well format assay.
• 1. One plate (10 cm) with approximately 2-3 million D3 cells per plate is incubated with 1 ml of Trypsin-EDTA at room temperature for ˜2 min or until cells have lifted off plates. Four ml of Ham's F12+10% Fetal Bovine Serum+1% Penicillin/Streptomycin+G418 (400 μg/ml) medium are added to resuspend cells and 1 ml of this is added to each large plate (15 cm) containing 19 ml of the-same medium as mentioned above. • 2. The 5 large plates are incubated at 37° C.+5% CO2 for ˜3 days or until the cells are confluent. • 3. After these plates are confluent, they are split into 10 large plates. Medium is aspirated off, 2 ml of Trypsin-EDTA are added to each plate and plates are incubated at RT for 2 min or until cells have lifted off the plate. Eight ml of the F12 medium (same medium as #1 above) are added to each plate (10 ml total) to resuspend the cells and 5 ml are transferred to the 2 new plates containing 15 ml of the F12 media. • 4. The 10 large plates are incubated at 37° C.+5% CO2 for ˜2 days or until the cells are confluent. • 5. The 10 large plates are split into 60 large plates (using Trypsin-EDTA as #3 except 4 ml of F12 medium are added to resuspend cells and 1 ml is aliquoted to 6 new plates containing 19 ml of F12 medium each). • 6. Plates are incubated at […]+5% CO2 for ˜3 days or until cell are confluent. • 7. The 60 large plates are then split into 60 roller bottles (100-150 million cells/bottle). Medium is aspirated off, 2 ml of Trypsin-EDTA are added to each plate and incubated at RT for ˜2 minutes or until cells have lifted off plates. Eight ml of F12 medium are added to each plate to resuspend cells and the entire 10 ml are added to 1 roller bottle containing 90 ml of the F12 medium. • 8. The 60 roller bottles are immediately placed on their sides and transferred to the roller bottle incubator. They are incubated at 37° C.+5% CO2 for ˜3-5 days. Cells are spun at 30-40% motor speed in the Forma incubator. • 9. Medium is poured off and cells are washed 2× in PBS. • 10. Cells are then scraped off in 20 ml of PBS and the bottles are rinsed again with 5 ml of PBS to remove any remaining cells. Cells are stored on ice before membrane preparation. • 11. The yield for 60 D3 roller bottles has varied from ˜260-500 mg. • Note: All tissue culture reagents are from Gibco-BRL. C. Membrane Preparation
The cells are harvested into 250 ml centrifuge tubes with 100 volumes of cold phosphate buffered saline (PBS) and spun down (1200×G for 10 min at 4° C.). The medium is removed and 100 ml PBS are added to each centrifuge tube, cells are resuspend and spun down again. The PBS is removed and the final pellet is homogenized in an appropriate volume of 10% DMSO with a polytron on ice at a medium setting.
1. 0.5M Tris Buffer, pH 7.7 • a) 44.4 g Tris HCl 26.5 g Tris Base q.s. to 1 Liter (0.5 M Tris buffer, pH 7.7 at 37° C.) • b) make a 1:10 dilution in distilled H2O (0.05 M. Tris buffer, pH 7.7) 2. Tris Buffer Containing Physiological Salts • a) Stock buffer • NaCl 7.014 g • KCl 0.372 g • CaCl2 0.222 g • MgCl2 0.204 g • q.s. To 100 ml with 0.5 M. Tris Buffer • b) Dilute 1:10 in distilled H2O […]

T1 sequence (P35462 whole entry): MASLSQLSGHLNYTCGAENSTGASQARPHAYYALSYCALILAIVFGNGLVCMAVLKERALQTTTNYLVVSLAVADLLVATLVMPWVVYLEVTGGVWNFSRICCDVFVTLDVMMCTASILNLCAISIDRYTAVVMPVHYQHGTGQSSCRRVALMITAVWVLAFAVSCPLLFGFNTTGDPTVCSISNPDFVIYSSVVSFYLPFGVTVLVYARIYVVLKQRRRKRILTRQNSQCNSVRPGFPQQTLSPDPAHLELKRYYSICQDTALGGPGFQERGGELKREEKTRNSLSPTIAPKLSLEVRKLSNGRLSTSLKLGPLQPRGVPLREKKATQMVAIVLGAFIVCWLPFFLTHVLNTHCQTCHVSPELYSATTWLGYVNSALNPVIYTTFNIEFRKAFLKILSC

Ki	Compound
0.82 nM	O=C(NCCCCN1CCCN(c2csc3cc(F)ccc23)CC1)c1cc2ccccc2o1 [822226G]
1.78 nM	Cn1c(C(=O)NCCCCN2CCCN(c3csc4cc(F)ccc34)CC2)cc2ccccc21 [822228G]
20.3 nM	O=C(NCCCCN1CCCN(c2csc3cc(C(F)(F)F)ccc23)CC1)c1ccc(-c2ccccc2F)cc1 [S908665]
1.85 nM	O=C(NCCCCN1CCCN(c2csc3cc(F)ccc23)CC1)c1cc2ccccc2[nH]1 [S977818]
3.21 nM	O=C(NCCCCN1CCCN(c2csc3cc(F)ccc23)CC1)c1cc2ccccc2o1 [S977819]
1.05 nM	COc1ccc2[nH]c(C(=O)NCCCCN3CCCN(c4csc5cc(F)ccc45)CC3)cc2c1 [S977820]
1.65 nM	Cn1c(C(=O)NCCCCN2CCCN(c3csc4cc(F)ccc34)CC2)cc2ccccc21 [S977821]
4.12 nM	O=C(NCCCCN1CCCN(c2csc3cc(F)ccc23)CC1)c1c[nH]c2ccccc12 [S977822]
3.96 nM	O=C(NCCCCN1CCCN(c2csc3cc(F)ccc23)CC1)c1cccc2[nH]ccc12 [S977823]
1.14 nM	O=C(NCCCCN1CCCN(c2csc3cc(F)ccc23)CC1)c1ccc2[nH]ccc2c1 [S977824]
0.882 nM	O=C(NCCCCN1CCCN(c2csc3cc(F)ccc23)CC1)c1ccc2cc[nH]c2c1 [S977825]
0.987 nM	CC1=C(C(=O)NCCCCN2CCCN(c3csc4cc(F)ccc34)CC2)Cc2ccccc21 [S977827]
6.97 nM	Cn1cccc1C(=O)NCCCCN1CCCN(c2csc3cc(F)ccc23)CC1 [S977828]
4.18 nM	O=C(NCCCCN1CCCN(c2csc3cc(F)ccc23)CC1)c1ccsc1 [S977829]
5.8 nM	O=C(NCCCCN1CCCN(c2csc3cc(F)ccc23)CC1)c1c[nH]cn1 [S977830]
1.87 nM	O=C(NCCCCN1CCCN(c2csc3cc(F)ccc23)CC1)c1ccc2[nH]cnc2c1 [S977831]
40 nM	O=C(NCCCCN1CCCN(c2csc3cc(C(F)(F)F)ccc23)CC1)c1cccs1 [S980627]
110 nM	O=C(NCCCCN1CCCN(c2csc3cc(C(F)(F)F)ccc23)CC1)c1cccc(Cl)c1 [S980628]
100 nM	O=C(NCCCCN1CCCN(c2csc3cc(C(F)(F)F)ccc23)CC1)c1cccc2ccccc12 [S980631]
23 nM	O=C(NCCCCN1CCCN(c2csc3cc(C(F)(F)F)ccc23)CC1)c1ccc2ccccc2c1 [S980632]

Ki	Compound
230 nM	O=C(NCCCCN1CCCN(c2csc3cc(C(F)(F)F)ccc23)CC1)c1cccc(C(F)(F)F)c1 [S980633]
14 nM	COc1ccccc1C(=O)NCCCCN1CCCN(c2csc3cc(C(F)(F)F)ccc23)CC1 [S980634]
71 nM	O=C(NCCCCN1CCCN(c2csc3cc(C(F)(F)F)ccc23)CC1)c1cccc(F)c1 [S980635]
18 nM	O=C(NCCCCN1CCCN(c2csc3cc(C(F)(F)F)ccc23)CC1)c1cc2ccccc2s1 [S980636]
43 nM	O=C(NCCCCN1CCCN(c2csc3cc(C(F)(F)F)ccc23)CC1)c1ccc(F)cc1 [S980637]
39 nM	COc1ccc(C(=O)NCCCCN2CCCN(c3csc4cc(C(F)(F)F)ccc34)CC2)cc1OC [S980638]
40 nM	Cc1ccccc1C(=O)NCCCCN1CCCN(c2csc3cc(C(F)(F)F)ccc23)CC1 [S980639]
43 nM	COc1cccc(C(=O)NCCCCN2CCCN(c3csc4cc(C(F)(F)F)ccc34)CC2)c1 [S980640]
29 nM	O=C(NCCCCN1CCCN(c2csc3cc(C(F)(F)F)ccc23)CC1)c1ccc(-c2ccccc2)cc1 [S980641]
69 nM	CC(C)(C)c1ccc(C(=O)NCCCCN2CCCN(c3csc4cc(C(F)(F)F)ccc34)CC2)cc1 [S980642]
96 nM	O=C(NCCCCN1CCCN(c2csc3cc(C(F)(F)F)ccc23)CC1)c1cnc2ccccc2n1 [S980643]
570 nM	O=C(NCCCCN1CCCN(c2csc3cc(C(F)(F)F)ccc23)CC1)c1ccc(C(F)(F)F)cc1 [S980644]
44 nM	O=C(NCCCCN1CCCN(c2csc3cc(C(F)(F)F)ccc23)CC1)c1ccncc1 [S980645]
110 nM	O=C(NCCCCN1CCCN(c2csc3cc(C(F)(F)F)ccc23)CC1)c1cccnc1Cl [S980646]
17 nM	COc1ccc2cc(C(=O)NCCCCN3CCCN(c4csc5cc(C(F)(F)F)ccc45)CC3)[nH]c2c1 [S980647]
35 nM	Cn1c(C(=O)NCCCCN2CCCN(c3csc4cc(C(F)(F)F)ccc34)CC2)cc2ccccc21 [S980648]
54 nM	O=C(NCCCCN1CCCN(c2csc3cc(C(F)(F)F)ccc23)CC1)c1c[nH]c2ccccc12 [S980649]
43 nM	O=C(NCCCCN1CCCN(c2csc3cc(C(F)(F)F)ccc23)CC1)c1cccc2[nH]ccc12 [S980650]
54 nM	O=C(NCCCCN1CCCN(c2csc3cc(C(F)(F)F)ccc23)CC1)c1ccc2[nH]ccc2c1 [S980651]
16.8 nM	O=C(NCCCCN1CCCN(c2csc3cc(C(F)(F)F)ccc23)CC1)c1ccc2cc[nH]c2c1 [S980652]

Ki	Compound
61 nM	O=C(NCCCCN1CCCN(c2csc3cc(C(F)(F)F)ccc23)CC1)c1n[nH]c2ccccc12 [S980653]
40 nM	Cn1cccc1C(=O)NCCCCN1CCCN(c2csc3cc(C(F)(F)F)ccc23)CC1 [S980655]
28 nM	O=C(NCCCCN1CCCN(c2csc3cc(C(F)(F)F)ccc23)CC1)c1ccsc1 [S980656]
175 nM	Cc1nn(-c2ccccc2)nc1C(=O)NCCCCN1CCCN(c2csc3cc(C(F)(F)F)ccc23)CC1 [S980657]
110 nM	Cc1ccc(Sc2cc(C(=O)NCCCCN3CCCN(c4csc5cc(C(F)(F)F)ccc45)CC3)ccn2)cc1 [S980659]
43.8 nM	Cc1nnsc1C(=O)NCCCCN1CCCN(c2csc3cc(C(F)(F)F)ccc23)CC1 [S980660]
151 nM	CSc1nsc(SC)c1C(=O)NCCCCN1CCCN(c2csc3cc(C(F)(F)F)ccc23)CC1 [S980661]
48 nM	Cc1oc(-c2ccccc2)cc1C(=O)NCCCCN1CCCN(c2csc3cc(C(F)(F)F)ccc23)CC1 [S980662]
96 nM	Cc1oc(-c2ccc(Cl)cc2)cc1C(=O)NCCCCN1CCCN(c2csc3cc(C(F)(F)F)ccc23)CC1 [S980663]
6.1 nM	O=C(NCCCCN1CCCN(c2csc3cc(C(F)(F)F)ccc23)CC1)c1ccc2nonc2c1 [S980664]
9 nM	Cc1nn(-c2ccccc2)nc1C(=O)NCCCCN1CCCN(c2csc3cc(F)ccc23)CC1 [S981833]
1.1 nM	O=C(NCCCCN1CCCN(c2csc3cc(F)ccc23)CC1)c1cccnc1Oc1ccccc1 [S981834]
1.2 nM	Cc1ccc(Sc2ncccc2C(=O)NCCCCN2CCCN(c3csc4cc(F)ccc34)CC2)cc1 [S981835]
46 nM	O=C(NCCCCN1CCCN(c2csc3cc(F)ccc23)CC1)c1ccno1 [S981836]
1.3 nM	Cc1nnsc1C(=O)NCCCCN1CCCN(c2csc3cc(F)ccc23)CC1 [S981837]
6 nM	CSc1nsc(SC)c1C(=O)NCCCCN1CCCN(c2csc3cc(F)ccc23)CC1 [S981838]
1.4 nM	Cc1oc(-c2ccccc2)cc1C(=O)NCCCCN1CCCN(c2csc3cc(F)ccc23)CC1 [S981839]
3.4 nM	Cc1oc(-c2ccc(Cl)cc2)cc1C(=O)NCCCCN1CCCN(c2csc3cc(F)ccc23)CC1 [S981840]
2.2 nM	O=C(NCCCCN1CCCN(c2csc3cc(F)ccc23)CC1)c1ccc(-c2ccccc2F)cc1 [S981842]
39 nM	O=C(NCCCCN1CCCN(c2csc3cc(F)ccc23)CC1)c1cc(C(F)(F)F)cc(C(F)(F)F)c1 [S981844]
